Measured values as given in ChEMBL document CHEMBL1148820, “Preparation and optimization of a series of 3-carboxamido-5-phenacylaminopyrazole bradykinin B1 receptor antagonists” (J Med Chem, 2007).

The compounds below were run against T1, B1 bradykinin receptor (Homo sapiens, UniProt P46663) (assay: Antagonist activity at human bradykinin B1 receptor in IL1-beta stimulated IMR90 cells by FLIPR assay).
T1 sequence (P46663 whole entry): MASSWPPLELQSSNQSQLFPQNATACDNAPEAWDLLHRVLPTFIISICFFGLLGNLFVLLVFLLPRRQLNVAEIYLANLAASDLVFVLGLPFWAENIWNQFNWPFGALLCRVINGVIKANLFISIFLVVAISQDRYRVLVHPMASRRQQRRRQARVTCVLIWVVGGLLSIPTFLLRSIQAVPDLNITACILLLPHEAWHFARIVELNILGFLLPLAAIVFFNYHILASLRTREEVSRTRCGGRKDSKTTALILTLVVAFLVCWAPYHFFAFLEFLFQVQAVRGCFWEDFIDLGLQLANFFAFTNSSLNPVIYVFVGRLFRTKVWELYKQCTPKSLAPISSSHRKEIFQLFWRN
Type: functional, cell-based, IMR-90

First: Cn1nc(NC(=O)c2ccccc2Cl)c(Br)c1C(=O)NCCC1CCN(c2ccncc2)CC1
Second: Cn1nc(C(=O)NCCC2CCN(c3ccncc3)CC2)c(Br)c1NC(=O)c1ccccc1Cl
The IC50 of the first is 15-fold higher: 640 nM for the first, 44 nM for the second.

Going from `O=C(Nc1c(Br)c(C(=O)NCCC2CCN(c3ccncc3)CC2)nn1-c1ccccn1)c1ccccc1Cl` to `O=C(Nc1c(Br)c(C(=O)NCCC2CCN(c3ccncc3)CC2)nn1-c1ccccc1)c1ccccc1Cl`, the IC50 falls from 12 nM to 3.5 nM (3.4-fold).

First: O=C(Nc1ccccc1)c1cc(NC(=O)c2ccccc2Cl)[nH]n1
Second: O=C(Nc1[nH]nc(C(=O)Nc2ccccc2)c1Cl)c1ccccc1Cl
The IC50 of the first is higher: > 10000 nM for the first, 700 nM for the second.

First: Cc1c(C(=O)Nc2ccccc2)n[nH]c1NC(=O)c1ccccc1Cl
Second: O=C(Nc1[nH]nc(C(=O)Nc2ccccc2)c1Br)c1ccccc1Cl
The IC50 of the first is 3.8-fold higher: 2000 nM for the first, 530 nM for the second. The second is the more potent here.

Going from `NC(=O)[C@@H](NC(=O)c1n[nH]c(NC(=O)c2ccccc2Cl)c1Br)c1ccccc1` to `COC(=O)[C@@H](NC(=O)c1n[nH]c(NC(=O)c2ccccc2Cl)c1Br)c1ccccc1`, the IC50 falls from 1700 nM to 290 nM (5.9-fold). The second is the more potent here.

First: O=C(Nc1[nH]nc(C(=O)NCCC2CCN(c3ccncc3)CC2)c1F)c1ccccc1Cl
Second: Cc1c(C(=O)NCCC2CCN(c3ccncc3)CC2)n[nH]c1NC(=O)c1ccccc1Cl
The IC50 of the first is 2.5-fold higher: 23 nM for the first, 9.3 nM for the second. The second is the more potent here.

Going from `CC(=O)Nc1[nH]nc(C(=O)NC2N=C(c3ccccc3)c3ccccc3NC2=O)c1Br` (configuration not stated) to `CC(C)C(=O)Nc1[nH]nc(C(=O)NC2N=C(c3ccccc3)c3ccccc3NC2=O)c1Br` (configuration not stated), the IC50 falls from > 10000 nM to 650 nM.

`O=C(Nc1[nH]nc(C(=O)NCCc2ccncc2)c1Br)c1ccccc1Cl` and `O=C(Nc1[nH]nc(C(=O)Nc2ccncc2)c1Br)c1ccccc1Cl` are within 1.5-fold of each other in IC50: 490 nM for the first, 560 nM for the second.

Compared with `Nc1cccc(N2CCC(CNC(=O)c3n[nH]c(NC(=O)c4ccccc4Cl)c3Br)CC2)n1`, `O=C(Nc1[nH]nc(C(=O)NCCC2CCN(c3ccncc3)CC2)c1Br)c1ccccc1Cl` is 4.3-fold lower in IC50: 13 nM for the first, 3 nM for the second.

Going from `COc1ccc(-n2nc(C(=O)NCCC3CCN(c4ccncc4)CC3)c(Br)c2NC(=O)c2ccccc2Cl)cc1` to `O=C(Nc1c(Br)c(C(=O)NCCC2CCN(c3ccncc3)CC2)nn1Cc1ccccc1)c1ccccc1Cl`, the IC50 falls from 1200 nM to 71 nM (17-fold). The second is the more potent here.

First: CN1CCC(N2CCC(CCNC(=O)c3nn(-c4ccccc4)c(NC(=O)c4ccccc4Cl)c3Br)CC2)CC1
Second: CN1CCC(N2CCC(CCNC(=O)c3n[nH]c(NC(=O)c4ccccc4Cl)c3Br)CC2)CC1
The IC50 of the first is 180-fold higher: 320 nM for the first, 1.8 nM for the second. The second is the more potent here.

First: CN(C)CCn1nc(C(=O)NCCC2CCN(c3ccncc3)CC2)c(Br)c1NC(=O)c1ccccc1Cl
Second: O=C(Nc1[nH]nc(C(=O)NCCC2CCN(c3ccncc3)CC2)c1Cl)c1ccccc1Cl
The IC50 of the first is 410-fold higher: 1600 nM for the first, 3.9 nM for the second. The second is the more potent here.

Compared with `O=C(Nc1c(Br)c(C(=O)N[C@@H]2CCCCNC2=O)nn1-c1ccccc1)c1ccccc1Cl`, `O=C(Nc1[nH]nc(C(=O)N[C@@H]2CCCCNC2=O)c1Br)c1ccccc1Cl` is lower in IC50: > 10000 nM for the first, 290 nM for the second.

Compared with `CC(C)(C)c1ccc(-c2n[nH]c(NC(=O)c3ccccc3Cl)c2Br)cc1`, `Cc1nc(-c2n[nH]c(NC(=O)c3ccccc3Cl)c2Br)cs1` is 2.9-fold lower in IC50: 3200 nM for the first, 1100 nM for the second.

`CN1CCC(CCNC(=O)c2n[nH]c(NC(=O)c3ccccc3Cl)c2Br)CC1` and `O=C(Nc1[nH]nc(C(=O)N[C@@H]2CN3CCC2CC3)c1Br)c1ccccc1Cl` are within 1.5-fold of each other in IC50: 86 nM for the first, 60 nM for the second.

First: CC[C@@H](NC(=O)c1n[nH]c(NC(=O)c2ccccc2Cl)c1Br)C(=O)N(C)C
Second: C[C@@H](NC(=O)c1n[nH]c(NC(=O)c2ccccc2Cl)c1Br)C(=O)N1CCCCC1
The IC50 of the first is 5.1-fold higher: 82 nM for the first, 16 nM for the second.

Compared with `C[C@@H](NC(=O)c1n[nH]c(NC(=O)c2ccccc2Cl)c1Br)c1ccccc1`, `O=C(Nc1[nH]nc(C(=O)NC2N=C(c3ccccc3)c3ccccc3NC2=O)c1Br)c1ccccc1Cl` (racemic) is 40-fold lower in IC50: 210 nM for the first, 5.2 nM for the second. The second is the more potent here.

Compared with `O=C(Nc1c(Br)c(C(=O)N[C@@H]2N=C(c3ccccc3)c3ccccc3NC2=O)nn1-c1ccccc1)c1ccccc1Cl`, `O=C(Nc1[nH]nc(C(=O)NC2N=C(c3ccccc3)c3ccccc3NC2=O)c1Br)c1ccccc1F` (configuration not stated) is lower in IC50: > 10000 nM for the first, 10 nM for the second.

First: O=C(Nc1[nH]nc(C(=O)NC2N=C(c3ccccc3)c3ccccc3NC2=O)c1Br)c1ccccc1 (configuration not stated)
Second: O=C(Nc1[nH]nc(C(=O)Nc2ccc(CCC3=NCCN3)cc2)c1Br)c1ccccc1Cl
The IC50 of the first is 650-fold higher: 49 nM for the first, 0.075 nM for the second.

`O=C(NCCC1CCN(c2ccncc2)CC1)c1cc(NC(=O)c2ccccc2Cl)[nH]n1` showed an IC50 of 200 nM.

These compounds were tested against T1, B1 bradykinin receptor (assay: Displacement of [3H]DAKA from human bradykinin B1 receptor in IL1-beta stimulated IMR90 cells).
Type: cell-based, IMR-90

Going from `COC(=O)[C@@H](NC(=O)c1n[nH]c(NC(=O)c2ccccc2Cl)c1Br)c1ccccc1` to `O=C(Nc1[nH]nc(C(=O)Nc2ccccc2)c1Br)c1ccccc1Cl`, the Ki rises from 73 nM to 200 nM (2.7-fold).

For `O=C(Nc1[nH]nc(C(=O)NCCc2ccncc2)c1Br)c1ccccc1Cl`, the Ki was 120 nM.
